Laboratory results taken from patent EP2522350A1, “Use of the active ingredient combination of a 1-diethylaminoethyl-3-chinoxalin-2-on derivative and an oxysterol for breaking resistance in the treatment of cancer and strengthening the immune system against cancer, bacterial and viral diseases, autoimmune diseases, increased stress and …” (Immunopharm AG, priority 2011, dated 2012).

Test: ORAC value (Oxygen Radical Absorbing Capacity)
Details: ratio to other antioxidants; no test described

CCN(CC)CCn1c(=O)c(Cc2ccc(OC)cc2)nc2ccccc21 [Caroverin, 1-(2-Diethylaminoethyl)-3-(p-methoxy-benzyl)-1,2-dihydrochinoxalin-2-on]
ORAC-Wert, höher gegenüber allen anderen bekannten Antioxidantien wie Vitamin C, E oder Glutathion: ≤ 1000 fach
